Results: ChEMBL document CHEMBL1201862, “PubChem BioAssay data set” (2004)
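Cultured in 96-well plates, cells were exposed to test compound for 48 hours across five concentrations. At the GI50, growth is halved.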 Active and inactive are the calls of the source. Cut-off read from the data, not from the text of the source: active = GI50 up to about 1.1 µM and inactive = higher.

Assays:
Test in all cases: NCI anticancer screen, dose series, 48 h
[1] = tested on: 786-0
[2] = tested on: A549
[3] = tested on: CAKI-1
[4] = tested on: COLO 205
[5] = tested on: EKVX
[6] = tested on: HCC 2998
[7] = tested on: HCT-116
[8] = tested on: HL-60
[9] = tested on: HOP-62
[10] = tested on: KM12
[11] = tested on: MOLT-4
[12] = tested on: OVCAR-3
[13] = tested on: OVCAR-4
[14] = tested on: OVCAR-5
[15] = tested on: OVCAR-8
[16] = tested on: SNB-19
[17] = tested on: SW-620
[18] = tested on: TK-10
[19] = tested on: UO-31
[20] = tested on: Malme-3M

SMILES	GI50 [1]	GI50 [2]	GI50 [3]	GI50 [4]	GI50 [5]	GI50 [6]	GI50 [7]	GI50 [8]	GI50 [9]	GI50 [10]	GI50 [11]	GI50 [12]	GI50 [13]	GI50 [14]	GI50 [15]	GI50 [16]	GI50 [17]	GI50 [18]	GI50 [19]	GI50 [20]
OC1(C(O)(c2ccc(-c3ccccc3)cc2)c2ccc(-c3ccccc3)cc2)CCCCC1	> 100 µM (inactive)	81.5 µM (inactive)	> 100 µM (inactive)	> 100 µM (inactive)	> 100 µM (inactive)	85.3 µM (inactive)	> 100 µM (inactive)	> 100 µM (inactive)	> 100 µM (inactive)	> 100 µM (inactive)	23.9 µM (inactive)	> 100 µM (inactive)	> 100 µM (inactive)	> 100 µM (inactive)	> 100 µM (inactive)	> 100 µM (inactive)	> 100 µM (inactive)	> 100 µM (inactive)	> 100 µM (inactive)	
COC(=O)CCC(NC(=S)N/N=C(\C)c1nccs1)C(=O)OC (configuration not stated)	69.3 µM (inactive)	74.8 µM (inactive)		11.3 µM (inactive)	67.6 µM (inactive)	52.5 µM (inactive)	34.4 µM (inactive)	10 µM (inactive)	48.8 µM (inactive)	> 100 µM (inactive)	> 10 µM (inactive)	31.3 µM (inactive)	45.8 µM (inactive)	53 µM (inactive)	68.4 µM (inactive)	> 100 µM (inactive)	47.5 µM (inactive)	> 100 µM (inactive)	49.3 µM (inactive)	> 100 µM (inactive)
O=C(CCc1cccc(O)c1)NCCCNC(=O)CCc1cccc(O)c1	> 100 µM (inactive)	> 100 µM (inactive)	> 100 µM (inactive)	> 100 µM (inactive)	> 100 µM (inactive)	> 100 µM (inactive)	> 100 µM (inactive)	< 0.01 µM (active)	> 100 µM (inactive)	> 100 µM (inactive)	> 100 µM (inactive)	> 100 µM (inactive)	> 100 µM (inactive)	> 100 µM (inactive)	> 100 µM (inactive)	> 100 µM (inactive)	> 100 µM (inactive)		> 100 µM (inactive)	> 100 µM (inactive)
Oc1cc(-c2ccccn2)nc2cc(F)ccc12	> 100 µM (inactive)	46 µM (inactive)		74.6 µM (inactive)	42.9 µM (inactive)	> 100 µM (inactive)	43.3 µM (inactive)	> 100 µM (inactive)	> 100 µM (inactive)	36.1 µM (inactive)	> 100 µM (inactive)	> 100 µM (inactive)	> 100 µM (inactive)	> 100 µM (inactive)	> 100 µM (inactive)	> 100 µM (inactive)	36.6 µM (inactive)	> 100 µM (inactive)	> 100 µM (inactive)	90.2 µM (inactive)
Sc1ncnc2c1ncn2Cc1ccco1	> 100 µM (inactive)	> 100 µM (inactive)	> 100 µM (inactive)	> 100 µM (inactive)	> 100 µM (inactive)	> 100 µM (inactive)	> 100 µM (inactive)		> 100 µM (inactive)	> 100 µM (inactive)	> 100 µM (inactive)	> 100 µM (inactive)	> 100 µM (inactive)	> 100 µM (inactive)	> 100 µM (inactive)	> 100 µM (inactive)	> 100 µM (inactive)	> 100 µM (inactive)	> 100 µM (inactive)	> 100 µM (inactive)
CN(C)c1ccc(/C=C2\Oc3ccccc3C2=O)cc1	> 100 µM (inactive)	> 100 µM (inactive)	> 100 µM (inactive)	> 100 µM (inactive)	> 100 µM (inactive)	> 100 µM (inactive)	> 100 µM (inactive)	> 100 µM (inactive)	> 100 µM (inactive)	> 100 µM (inactive)	> 100 µM (inactive)	> 100 µM (inactive)	> 100 µM (inactive)		> 100 µM (inactive)	> 100 µM (inactive)	> 100 µM (inactive)	> 100 µM (inactive)	52.2 µM (inactive)	
N#C/C(=C1/c2cc([N+](=O)[O-])ccc2-c2c1cc([N+](=O)[O-])cc2[N+](=O)[O-])N1CCCCC1	39.2 µM (inactive)	> 100 µM (inactive)	> 100 µM (inactive)	> 100 µM (inactive)	> 100 µM (inactive)	> 100 µM (inactive)	27.3 µM (inactive)		32.4 µM (inactive)	> 100 µM (inactive)	> 100 µM (inactive)	> 100 µM (inactive)	23.9 µM (inactive)	> 100 µM (inactive)	> 100 µM (inactive)	> 100 µM (inactive)	> 100 µM (inactive)	> 100 µM (inactive)	> 100 µM (inactive)	> 100 µM (inactive)
